Legend:
[1] = system: OAW-28 (Ovarian Carcinoma); test: Bliss excess, mean over the matrix (fraction); higher = more synergy
How it was run: (§1)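 Bliss excess equals the observed combination effect minus the expected value EA + EB − EA·EB, where EA and EB are the effects of each agent alone. Combination Emax is the second-highest inhibition within the matrix. Inhibition was scaled from CellTiter-Glo 2.0 luminescence, with 0 set by vehicle wells and 1 by blank wells, after 72 hours of two-drug dosing of cells plated in 1536-well plates.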

[2] = system: NCI-H596 (Other Solid Carcinomas); test: as above
How it was run: as §1

CS(=O)(=O)CCNCc1ccc(-c2ccc3ncnc(Nc4ccc(OCc5cccc(F)c5)c(Cl)c4)c3c2)o1 [Lapatinib] + NC1(c2ccc(-c3nc4ccn5c(=O)[nH]nc5c4cc3-c3ccccc3)cc2)CCC1 [MK-2206] (first compound max 10 µM, 7x7, partner max 10 µM)
Bliss excess [1]: 0.0285 | Bliss excess [2]: -0.045

From the supplement of paper PMC11061612
